Active and inactive are the calls of the source. The rule behind the calls is not given here.
Tests used:
[1] = molecular target: T1, Tyrosine-protein phosphatase non-receptor type 1 (Homo sapiens, UniProt P18031)
T1 sequence (P18031 whole entry): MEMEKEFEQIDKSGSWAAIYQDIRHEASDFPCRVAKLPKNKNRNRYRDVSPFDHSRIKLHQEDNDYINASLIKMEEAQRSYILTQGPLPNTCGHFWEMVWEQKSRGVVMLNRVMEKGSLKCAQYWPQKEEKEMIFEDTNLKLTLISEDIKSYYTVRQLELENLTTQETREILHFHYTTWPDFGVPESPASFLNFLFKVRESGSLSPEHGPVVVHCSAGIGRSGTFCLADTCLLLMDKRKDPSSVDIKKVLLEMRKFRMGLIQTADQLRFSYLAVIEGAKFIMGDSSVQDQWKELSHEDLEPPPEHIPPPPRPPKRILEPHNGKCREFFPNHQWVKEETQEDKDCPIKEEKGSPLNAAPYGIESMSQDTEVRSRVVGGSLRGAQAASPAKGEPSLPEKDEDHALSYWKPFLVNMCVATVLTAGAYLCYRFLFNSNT

[2] = molecular target: T2, Phosphotyrosine protein phosphatase (Mycobacterium tuberculosis, UniProt A0A045ISB3)
T2 sequence (A0A045ISB3 whole entry): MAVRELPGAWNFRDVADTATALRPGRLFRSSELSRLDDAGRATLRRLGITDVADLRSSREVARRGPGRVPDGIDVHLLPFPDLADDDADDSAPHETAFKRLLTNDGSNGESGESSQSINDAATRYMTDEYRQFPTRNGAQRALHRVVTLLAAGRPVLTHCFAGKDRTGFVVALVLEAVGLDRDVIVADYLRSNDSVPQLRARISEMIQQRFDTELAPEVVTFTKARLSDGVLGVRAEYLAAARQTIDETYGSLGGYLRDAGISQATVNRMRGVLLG
Description: Inhibition of Mycobacterium tuberculosis PTPB expressed in Escherichia coli BL21 (DE3) using p-nitrophenyl phosphate as substrate measured after 30 mins by UV-vis spectrophotometric method

[3] = molecular target: T3, Tyrosine-protein phosphatase non-receptor type 11 (Homo sapiens, UniProt Q06124)
T3 sequence (Q06124 whole entry): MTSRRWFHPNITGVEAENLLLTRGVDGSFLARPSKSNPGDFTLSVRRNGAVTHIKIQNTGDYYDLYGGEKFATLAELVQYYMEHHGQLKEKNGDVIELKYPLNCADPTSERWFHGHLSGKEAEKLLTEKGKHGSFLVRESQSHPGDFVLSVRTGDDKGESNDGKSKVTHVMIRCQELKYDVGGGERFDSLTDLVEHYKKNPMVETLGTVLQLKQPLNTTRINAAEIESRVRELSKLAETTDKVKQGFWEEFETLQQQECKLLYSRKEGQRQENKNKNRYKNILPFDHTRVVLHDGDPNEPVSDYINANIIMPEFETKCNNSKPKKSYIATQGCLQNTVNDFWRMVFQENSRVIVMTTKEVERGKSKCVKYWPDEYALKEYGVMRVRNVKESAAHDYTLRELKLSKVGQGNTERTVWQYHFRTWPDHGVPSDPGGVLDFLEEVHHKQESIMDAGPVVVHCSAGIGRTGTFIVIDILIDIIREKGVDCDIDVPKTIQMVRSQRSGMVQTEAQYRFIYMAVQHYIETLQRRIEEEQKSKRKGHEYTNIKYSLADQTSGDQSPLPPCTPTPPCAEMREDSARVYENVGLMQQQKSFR

[4] = molecular target: Tyrosine-protein phosphatase non-receptor type 6 (Homo sapiens, UniProt P29350)
[5] = Drug uptake in mouse RAW264.7 cells at 20 uM measured after 2 hrs by LC-MS analysis; type: ADME, cell-based; conditions: raw264.7, 2 h
[6] = Stability in CD1 mouse pooled liver microsomes measured after 2 hrs in absence of NADPH by LC-MS/MS analysis; type: ADME, Microsome
MEF = experiment: Cytotoxicity against MEF at 25 uM measured after 72 hrs by MTT assay; type: cell-based; conditions: mouse
[7] = molecular target: Receptor-type tyrosine-protein phosphatase epsilon (Homo sapiens, UniProt P23469)
[8] = molecular target: T4, Phosphotyrosine protein phosphatase (Mycobacterium tuberculosis) (UniProt A0A045ISB3)
T4 sequence (whole entry): T2 sequence (A0A045ISB3 whole entry)
Description: Time-dependent inhibition of Mycobacterium tuberculosis PTPB expressed in Escherichia coli BL21 (DE3) using p-nitrophenyl phosphate as substrate in absence of Triton-X-100 by UV-vis spectrophotometric method

[9] = molecular target: T4, Phosphotyrosine protein phosphatase (Mycobacterium tuberculosis); remark: listed apart in the source
Description: Time-dependent inhibition of Mycobacterium tuberculosis PTPB expressed in Escherichia coli BL21 (DE3) using p-nitrophenyl phosphate as substrate in presence of Triton-X-100 by UV-vis spectrophotometric method

Chain of Tyrosine-protein phosphatase non-receptor type 6 (P29350 whole entry): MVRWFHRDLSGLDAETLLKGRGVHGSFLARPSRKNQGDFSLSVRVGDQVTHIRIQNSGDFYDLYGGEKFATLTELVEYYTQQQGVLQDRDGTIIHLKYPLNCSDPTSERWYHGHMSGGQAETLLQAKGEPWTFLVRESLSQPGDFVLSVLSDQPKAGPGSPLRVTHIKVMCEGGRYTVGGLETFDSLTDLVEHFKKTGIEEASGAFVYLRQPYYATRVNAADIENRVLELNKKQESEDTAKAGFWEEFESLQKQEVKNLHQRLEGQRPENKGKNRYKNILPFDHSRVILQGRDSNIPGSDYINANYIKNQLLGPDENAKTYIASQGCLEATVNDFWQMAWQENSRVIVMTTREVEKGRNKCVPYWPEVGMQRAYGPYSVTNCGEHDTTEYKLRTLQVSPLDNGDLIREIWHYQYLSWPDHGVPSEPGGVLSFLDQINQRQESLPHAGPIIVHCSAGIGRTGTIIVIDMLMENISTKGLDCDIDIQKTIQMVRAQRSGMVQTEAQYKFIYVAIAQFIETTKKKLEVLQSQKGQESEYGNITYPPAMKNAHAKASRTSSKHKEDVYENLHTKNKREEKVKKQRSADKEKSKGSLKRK
Chain of Receptor-type tyrosine-protein phosphatase epsilon (P23469 whole entry): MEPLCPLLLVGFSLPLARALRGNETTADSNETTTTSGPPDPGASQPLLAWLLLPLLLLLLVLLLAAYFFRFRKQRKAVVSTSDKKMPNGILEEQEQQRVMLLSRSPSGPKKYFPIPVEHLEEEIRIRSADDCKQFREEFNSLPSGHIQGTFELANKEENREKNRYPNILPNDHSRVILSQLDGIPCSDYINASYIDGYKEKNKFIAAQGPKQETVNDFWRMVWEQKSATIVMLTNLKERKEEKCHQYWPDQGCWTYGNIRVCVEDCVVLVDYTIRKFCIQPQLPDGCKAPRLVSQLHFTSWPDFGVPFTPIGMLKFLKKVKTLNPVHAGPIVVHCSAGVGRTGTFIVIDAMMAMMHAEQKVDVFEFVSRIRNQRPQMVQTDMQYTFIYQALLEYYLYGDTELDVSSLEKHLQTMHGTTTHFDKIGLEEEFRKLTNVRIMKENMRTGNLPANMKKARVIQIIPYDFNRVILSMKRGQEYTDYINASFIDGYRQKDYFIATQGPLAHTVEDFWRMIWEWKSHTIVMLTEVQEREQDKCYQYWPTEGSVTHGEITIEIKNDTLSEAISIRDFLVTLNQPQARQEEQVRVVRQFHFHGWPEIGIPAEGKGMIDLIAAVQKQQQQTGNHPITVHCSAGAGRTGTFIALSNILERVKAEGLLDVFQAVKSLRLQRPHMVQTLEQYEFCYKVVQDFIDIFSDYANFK

SMILES: O=C(O)C(=O)Nc1ccc(CCc2ccc(C(F)(F)F)cc2)cc1
- IC50 [1]: > 30 µM
- IC50 [2]: 197 nM
- IC50 [3]: > 30 µM

SMILES: O=C(O)C(=O)Nc1ccc(C#Cc2ccc(C(F)(F)F)cc2F)cc1
- IC50 [4]: > 30 µM
- IC50 [1]: > 30 µM
- Drug uptake [5]: Active
- IC50 [3]: > 30 µM
- Stability [6]: Stable

SMILES: O=C(O)C(=O)Nc1ccc(C#Cc2ccc(O)c(Br)c2)cc1
- IC50 [4]: > 50 µM
- IC50 [1]: > 50 µM

SMILES: COC(=O)c1cc(C#Cc2ccc(NC(=O)C(=O)O)cc2)c(N(C)C)cc1O
- IC50 [4]: > 50 µM
- IC50 [1]: > 50 µM
- IC50 [2]: 30 nM
- IC50 [3]: > 50 µM

SMILES: C#Cc1ccc(NC(=O)C(=O)O)cc1
- IC50 [1]: > 100 µM
- IC50 [3]: > 100 µM

SMILES: O=C(O)C(=O)Nc1cccc(C#Cc2ccccc2)c1
- IC50 [1]: > 100 µM

SMILES: O=C(O)C(=O)Nc1ccc(/C=C\c2ccccc2)cc1
- IC50 [1]: > 30 µM
- IC50 [2]: 770 nM
- IC50 [3]: > 30 µM

SMILES: O=C(O)C(=O)Nc1ccc(C#Cc2ccc(O)cc2)cc1
- IC50 [4]: > 50 µM
- IC50 [1]: > 50 µM
- IC50 [3]: > 50 µM

SMILES: COC(=O)c1ccc(C#Cc2ccc(NC(=O)C(=O)O)cc2)cc1O
- IC50 [4]: > 50 µM
- IC50 [1]: > 50 µM
- IC50 [3]: > 50 µM

SMILES: O=C(O)C(=O)Nc1ccc(C#Cc2ccc(C(F)(F)F)cc2C(F)(F)F)cc1
- IC50 [4]: > 30 µM
- IC50 [1]: > 30 µM
- IC50 [3]: > 30 µM

SMILES: O=C(O)C(=O)Nc1ccc(C#Cc2ccc3ccccc3c2)cc1
- IC50 [4]: > 50 µM
- IC50 [1]: > 50 µM
- IC50 [3]: > 50 µM

SMILES: CC(C)(C)OC(=O)Nc1ccc(C#Cc2ccc(NC(=O)C(=O)O)cc2)cc1
- IC50 [4]: > 50 µM
- IC50 [1]: > 50 µM
- Activity (MEF): Non-Toxic
- IC50 [3]: > 50 µM

SMILES: O=C(O)C(=O)Nc1ccccc1
- IC50 [1]: > 100 µM
- IC50 [3]: > 100 µM

SMILES: O=C(O)C(=O)Nc1ccc(C#Cc2cccc(C(F)(F)F)c2)cc1
- IC50 [4]: > 50 µM
- IC50 [3]: > 50 µM

SMILES: O=C(O)C(=O)Nc1cnc2ccccc2c1
- IC50 [2]: > 10000 nM

SMILES: O=C(O)C(=O)Nc1ccc(C#Cc2ccccc2)cc1
- IC50 [4]: > 100 µM
- IC50 [1]: > 100 µM
- IC50 [2]: 257 nM
- IC50 [3]: > 100 µM

SMILES: O=C(O)C(=O)Nc1ccc(CCc2ccccc2)cc1
- IC50 [1]: > 30 µM
- IC50 [2]: 1270 nM
- IC50 [3]: > 30 µM

SMILES: O=C(O)C(=O)Nc1ccc(C#Cc2ccc(OC(F)(F)F)cc2)cc1
- IC50 [4]: > 50 µM
- IC50 [1]: > 50 µM
- IC50 [3]: > 50 µM

SMILES: CN(C)c1cc(O)c(C(=O)O)cc1C#Cc1cccc(NC(=O)C(=O)O)c1
- IC50 [2]: 160 nM

SMILES: O=C(O)C(=O)Nc1ccc(C#Cc2ccc(C(F)(F)F)cc2)cc1
- IC50 [4]: > 50 µM
- IC50 [1]: > 50 µM
- IC50 [7]: > 30 µM
- Drug uptake [5]: Active
- IC50 [3]: > 50 µM
- Stability [6]: Stable

SMILES: CC(C)(C)OC(=O)NCC#Cc1ccc(NC(=O)C(=O)O)cc1
- IC50 [1]: > 100 µM

SMILES: CC(C)(C)c1ccc(C#Cc2ccc(NC(=O)C(=O)O)cc2)cc1
- IC50 [4]: > 50 µM
- IC50 [1]: > 50 µM
- IC50 [2]: 26 nM
- IC50 [3]: > 50 µM

SMILES: NS(=O)(=O)c1ccc(C#Cc2ccc(NC(=O)C(=O)O)cc2)cc1
- IC50 [1]: > 50 µM
- IC50 [3]: > 50 µM

SMILES: COC(=O)c1cc(C#Cc2cccc(NC(=O)C(=O)O)c2)c(N(C)C)cc1O
- IC50 [4]: > 50 µM
- IC50 [1]: > 50 µM
- IC50 [3]: > 50 µM

SMILES: O=C(O)C(=O)Nc1ccc(C#Cc2cc(C(F)(F)F)cc(C(F)(F)F)c2)cc1
- IC50 [4]: > 50 µM
- IC50 [1]: > 50 µM
- TDI [8]: Active
- IC50 [2]: 60 nM
- IC50 [3]: > 50 µM
- TDI [9]: Active

SMILES: O=C(O)C(=O)Nc1ccc(/C=C\c2ccc(C(F)(F)F)cc2)cc1
- IC50 [1]: > 30 µM
- IC50 [2]: 684 nM
- IC50 [3]: > 30 µM

SMILES: N#Cc1ccc(C#Cc2ccc(NC(=O)C(=O)O)cc2)cc1
- IC50 [4]: > 50 µM
- IC50 [1]: > 50 µM
- IC50 [3]: > 50 µM

SMILES: O=C(O)C(=O)Nc1ccc(C#Cc2ccc(C(F)(F)F)cc2Cl)cc1
- IC50 [4]: > 30 µM
- IC50 [1]: > 30 µM
- Activity (MEF): Non-Toxic
- Drug uptake [5]: Active
- IC50 [3]: > 30 µM
- Stability [6]: Stable

SMILES: CN(C)c1cc(O)c(C(=O)O)cc1C#Cc1ccc(NC(=O)C(=O)O)cc1
- IC50 [1]: > 100 µM
- IC50 [2]: 90 nM

SMILES: O=C(O)C(=O)Nc1ccc(C#Cc2ccc(C(F)(F)F)cc2Br)cc1
- Drug uptake [5]: Active
- Stability [6]: Stable

SMILES: COC(=O)c1cc(C#Cc2ccc(NC(=O)C(=O)O)cc2)ccc1O
- IC50 [4]: > 50 µM
- IC50 [1]: > 50 µM
- IC50 [2]: 25 nM
